According to US12257334B2, “Oral care compositions” (Colgate-Palmolive Company, priority 2015, dated 2025):
Values belong to the molecule of their own block, whether it stands above or below them.

What was measured:
[1] = Stabilization with multi-charged species: redissolving the DV-CHX precipitate; assay type: physicochemical; details: with significant stirring time
Description: Stabilization with Multi-Charged Species: The addition of DV to a solution of CHX causes an immediate precipitation. However, the addition of low levels of surfactants or multi-charged compounds brings both DV and CHX back into solution. The table below lists multiple compounds that help to redissolve the DV-CHX, and what we have found as their lowest effective levels. These solutions are stable from pH 4.9-7. Addition of citric acid to lower the pH to <4.9 causes significant precipitation.

[2] = test system: mixed species inoculum culture containing: Lactobacillus casei, Streptococcus oralis, Actinomyces viscosus, Veillonella parvula & Fusobacterium nucleatum; assay type: cell-based
Procedure: Bacterial kill: A 20-second short interval kill test (SIKT) measures the efficacy of various treatment solutions in killing oral pathogens. […] A mixed species inoculum culture containing: Lactobacillus casei, Streptococcus oralis, Actinomyces viscosus, Veillonella parvula & Fusobacterium nucleatum at an optical density of 0.5 @ 610nm is centrifuged. The supernatant is then aspirated off and the remaining pellicle re-suspended in sterile phosphate buffered saline (PBS). 100 ul of this solution is then treated with 100 ul of test sample for 30 or 60 seconds. Immediately following treatment, the exposure is neutralized by adding 1.3 ml of sterile D/E neutralizing broth. The neutralizing broth is then rinsed off by centrifugation and re-suspension in PBS. 50 ul samples are then transferred in triplicate to a 96-well microplate. The fluorescent dyes are then prepared per the manufacturer's directions and added to the samples. The fluorescence is then measured in a fluorescent plate reader. Data from this assay are presented as a percentage of bacterial remaining viable relative to a control sample treated with PBS.

[3] = aqueous solution, no net charge; cited from earlier work

Lowest effective level ([1]; added to solution of 0.12% CHX and 1.025 DV (w/w by actives)): 0.3% for 0.12% CHX | Lowest effective level ([1]; added to solution of 0.2% CHX and 1.025 DV (w/w by actives)): 0.3% for 0.2% CHX
Compound: C[N+](C)(C)CC(=O)O [Betaine]

Compound: CCO [Dead, ethanol]
% viability [2]: 36.3%

Compound: NCCCC[C@H](N)C(=O)O [lysine]
isoelectric point [3]: 9.7 pH
